Measured values from US20100093864A1, “ANTI-INFECTIVE THIOUREA COMPOUNDS” (LICA PHARMACEUTICALS, priority 2006, published 2010).
≈ marks a conversion by molar mass, not a printed value. Like-named read-outs stand apart in the source and are kept apart here.

Columns and labels:
Staphylococcus aureus = test: Antibacterial screening (MIC), broth microdilution assay; type: cell-based; settings: read-out: MIC Staph. aureus
Protocol: An initial screening for in vitro activity was conducted in a broth microtiter assay. The synthesized compounds were assayed against several […] such as Staphylococcus aureus and 2 different strains of E. coli (including a type strain and an antibiotic-susceptible strain). Following initial screening MICs were determined.
Staphylococcus aureus ATCC29213 Staphylococcus aureus ATCC33591 (MRSA) Eschericia coli ATCC25922 Eschericia coli ESS
The screening was performed with test compounds in 4 different concentrations.
MICs for ATCC type strains fall within the limits posted by the NCCLS (M100-S11) when tested against Vancomycin, Tetracycline and Gentamycin.

[1] = tested on: MCF7 cells (ATCC: HTB 22); test: MTT assay on MCF7 cells; type: cell-based
From the text: The cytotoxicity effect of the compounds at different exposure times as a function of concentration has been tested in an erythrocyte hemolysis assay as well as an MTT assay on MCF7 cells (ATCC: HTB 22).

erythrocyte = test: Erythrocyte hemolysis assay; type: cell-based; settings: for 50% Haemolysis: concentration giving 50% haemolysis
[2] = molecular target: bovine serum albumin (BSA) (Bos taurus, UniProt P02769); test: Protein binding bioassay: MICs in presence or absence of 40 mg/ml BSA; type: in vitro ADME; settings: MICs with or without 40 mg/ml BSA
Protocol: Protein binding was performed using a bioassay determining MICs in the presence or absence of 40 mg/ml bovine serum albumin (BSA).

[3] = Staphylococcus aureus, broth microdilution per NCCLS M7-A5, strain not given

Chain of bovine serum albumin (BSA) (P02769 25-607): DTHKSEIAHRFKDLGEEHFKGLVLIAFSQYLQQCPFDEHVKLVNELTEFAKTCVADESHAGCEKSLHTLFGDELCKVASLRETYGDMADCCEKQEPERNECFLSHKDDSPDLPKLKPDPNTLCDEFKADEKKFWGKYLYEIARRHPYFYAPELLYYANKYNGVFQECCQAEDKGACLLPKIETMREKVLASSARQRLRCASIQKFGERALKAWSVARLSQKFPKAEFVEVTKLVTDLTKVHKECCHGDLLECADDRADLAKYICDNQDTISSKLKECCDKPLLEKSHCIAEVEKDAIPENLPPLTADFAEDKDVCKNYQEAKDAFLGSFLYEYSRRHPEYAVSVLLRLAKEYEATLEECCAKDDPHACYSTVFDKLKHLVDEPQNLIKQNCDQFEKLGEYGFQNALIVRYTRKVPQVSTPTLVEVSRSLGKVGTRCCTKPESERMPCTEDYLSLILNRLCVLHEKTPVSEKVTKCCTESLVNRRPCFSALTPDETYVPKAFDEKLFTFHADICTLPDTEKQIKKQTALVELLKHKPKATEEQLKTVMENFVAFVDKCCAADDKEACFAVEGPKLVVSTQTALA

How did the MIC (Staphylococcus aureus; broth microdilution per NCCLS M7-A5, strain not given) turn out when `O=C(O)c1cn(C2CC2)c2cc(N3CCNCC3)c(F)cc2c1=O` [Ciprofloxicin, reference compound] was run?
Its MIC is 1.5 µM (≈ 0.497 µg/mL).

And the MTT [1]?
The MTT was greater than 100 µM.

What about the “Haemolysis 4x MIC” value (erythrocyte; at 4x MIC) of the same molecule?
The value was 0%.

What about the “50% Haemolysis” value (erythrocyte) of the same molecule?
Its value is 150 µM.

Which results are given for `FC(F)(F)c1cc(NC(=S)NCc2cccc(Cl)c2)cc(C(F)(F)F)c1` [Compound A, 1-(3,5-Bis-trifluoromethyl-phenyl)-3-(3-chloro-benzyl)-thiourea]?
MIC (Staphylococcus aureus; [3]): 0.6 µM (≈ 0.248 µg/mL); fraction unbound [2]: 0.02; MTT [1]: 150 µM; Haemolysis 4x MIC (erythrocyte; at 4x MIC): <1%; 50% Haemolysis (erythrocyte): 75 µM

How did the fraction unbound [2] turn out when `FC(F)(F)c1cc(NC(=S)NCc2ccc(Cl)cc2Cl)cc(C(F)(F)F)c1` [Compound B, 1-(3,5-Bis-trifluoromethyl-phenyl)-3-(2,4-dichloro-benzyl)-thiourea] was run?
Its fraction unbound is less than 0.02.

What about the MTT [1] of the same molecule?
Its MTT is 150 µM.

What about the “Haemolysis 4x MIC” value (erythrocyte; at 4x MIC) of the same molecule?
The value was less than 1%.

What about the “50% Haemolysis” value (erythrocyte) of the same molecule?
The value was 150 µM.

For `CC(NC(=S)Nc1cc(C(F)(F)F)cc(C(F)(F)F)c1)c1ccc(Br)cc1` (stereo not shown) [Compound C, 1-(3,5-Bis-trifluoromethyl-phenyl)-3-[1-(4-bromo-phenyl)-ethyl]-thiourea], which MIC (Staphylococcus aureus; [3]) is on record?
The MIC was 0.3 µM (≈ 0.141 µg/mL).

What about the fraction unbound [2] of the same molecule?
The fraction unbound was 0.02.

What about the “Haemolysis 4x MIC” value (erythrocyte; at 4x MIC) of the same molecule?
Its value is 15%.

And the “50% Haemolysis” value (erythrocyte)?
Its value is 37.5 µM.

What does the source list for `FC(F)(F)c1cc(NC(=S)NCCc2ccc(Cl)cc2Cl)cc(C(F)(F)F)c1` [Compound D, 1-(3,5-Bis-trifluoromethyl-phenyl)-3-[2-(2,4-dichloro-phenyl)-ethyl]-thiourea]?
MIC (Staphylococcus aureus; [3]): 0.3 µM (≈ 0.138 µg/mL); fraction unbound [2]: 0.02; MTT [1]: 150 µM

`FC(F)(F)c1cc(NC(=S)NCCOc2ccc(Cl)c(Cl)c2)cc(C(F)(F)F)c1` [Compound E, 1-(3,5-Bis-trifluoromethyl-phenyl)-3-[2-(3,4-dichloro-phenoxy)-ethyl]-thiourea] was tested. Which MIC (Staphylococcus aureus; [3]) did it give?
Its MIC is 0.3 µM (≈ 0.143 µg/mL).

What about the fraction unbound [2] of the same molecule?
Its fraction unbound is 0.02.

What about the “50% Haemolysis” value (erythrocyte) of the same molecule?
The value was 18.8 µM.

What does the source list for `FC(F)(F)c1cc(NC(=S)NCc2ccc(Cl)cc2)cc(C(F)(F)F)c1` [Compound F, 1-(3,5-Bis-trifluoromethyl-phenyl)-3-(4-chloro-benzyl)-thiourea]?
fraction unbound [2]: < 0.03; MTT [1]: 150 µM; Haemolysis 4x MIC (erythrocyte; at 4x MIC): <1%; 50% Haemolysis (erythrocyte): 150 µM

How did the MIC (Staphylococcus aureus; [3]) turn out when `FC(F)(F)c1cc(NC(=S)NCCc2cccc(Cl)c2)cc(C(F)(F)F)c1` [Compound G, 1-(3,5-Bis-trifluoromethyl-phenyl)-3-[2-(3-chloro-phenyl)-ethyl]-thiourea] was run?
The MIC was 0.6 µM (≈ 0.256 µg/mL).

And the fraction unbound [2]?
Its fraction unbound is less than 0.03.

And the MTT [1]?
Its MTT is 150 µM.

And the “Haemolysis 4x MIC” value (erythrocyte; at 4x MIC)?
The value was 0%.

What about the “50% Haemolysis” value (erythrocyte) of the same molecule?
Its value is 75 µM.

What does the source list for `Cc1onc(-c2c(Cl)cccc2Cl)c1C(=O)N[C@@H]1C(=O)N2[C@@H]1SC(C)(C)[C@@H]2C(=O)O` [Dicloxacillin, reference compound]?
MIC (Staphylococcus aureus; [3]): 0.5 µM (≈ 0.235 µg/mL); MTT [1]: >100 µM; Haemolysis 4x MIC (erythrocyte; 4 x MIC): 0%; 50% Haemolysis (erythrocyte): 150 µM

Which results are given for `CN[C@H](CC(C)C)C(=O)N[C@H]1C(=O)N[C@@H](CC(N)=O)C(=O)N[C@H]2C(=O)N[C@H]3C(=O)N[C@H](C(=O)N[C@H](C(=O)O)c4cc(O)cc(O)c4-c4cc3ccc4O)[C@H](O)c3ccc(c(Cl)c3)Oc3cc2cc(c3O[C@@H]2O[C@H](CO)[C@@H](O)[C@H](O)[C@H]2O[C@H]2C[C@](C)(N)[C@H](O)[C@H](C)O2)Oc2ccc(cc2Cl)[C@H]1O` [Vancomycin, reference compound]?
MIC (Staphylococcus aureus; Staphylococcus aureus): 0.3 µM (≈ 0.435 µg/mL); MTT [1]: >100 µM; Haemolysis 4x MIC (erythrocyte; at 4x MIC): 0%; 50% Haemolysis (erythrocyte): 150 µM
